The text below walks through data of ChEMBL document CHEMBL5463728, “Data for DCP probe BAY-6096” (2023).

In assay [1] the target is Beta-3 adrenergic receptor (Homo sapiens, UniProt P13945). Conditions: Compound concentration 10.0 uM; call rule not given here.
The target of assay [2] is 5-hydroxytryptamine receptor 7 (Homo sapiens) (UniProt P34969). Conditions: Compound concentration 10.0 uM.
For assay [3], the target named is Alpha-1A adrenergic receptor (Homo sapiens) (UniProt P35348). As to conditions: Compound concentration 10.0 uM.
Sequence of Alpha-1A adrenergic receptor (Homo sapiens) (P35348 whole entry): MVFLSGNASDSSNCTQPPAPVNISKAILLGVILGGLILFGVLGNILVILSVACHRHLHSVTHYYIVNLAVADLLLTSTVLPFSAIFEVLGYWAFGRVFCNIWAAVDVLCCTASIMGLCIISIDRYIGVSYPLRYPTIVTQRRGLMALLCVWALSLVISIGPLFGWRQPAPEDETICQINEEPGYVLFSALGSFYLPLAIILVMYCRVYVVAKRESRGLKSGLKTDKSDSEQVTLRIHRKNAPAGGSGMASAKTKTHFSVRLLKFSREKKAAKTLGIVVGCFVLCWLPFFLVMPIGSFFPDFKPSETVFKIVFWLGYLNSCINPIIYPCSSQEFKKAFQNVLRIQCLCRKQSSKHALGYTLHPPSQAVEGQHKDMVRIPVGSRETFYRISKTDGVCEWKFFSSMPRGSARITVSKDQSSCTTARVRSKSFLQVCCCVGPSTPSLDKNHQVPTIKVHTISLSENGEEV
Assay [4] concerns the target Sigma non-opioid intracellular receptor 1 (Homo sapiens) (UniProt Q99720). As to conditions: Compound concentration 10.0 uM.
The target in assay [5] is Histamine H1 receptor (Homo sapiens) (UniProt P35367). Conditions: Compound concentration 10.0 uM.
Sequence of Histamine H1 receptor (Homo sapiens) (P35367 whole entry): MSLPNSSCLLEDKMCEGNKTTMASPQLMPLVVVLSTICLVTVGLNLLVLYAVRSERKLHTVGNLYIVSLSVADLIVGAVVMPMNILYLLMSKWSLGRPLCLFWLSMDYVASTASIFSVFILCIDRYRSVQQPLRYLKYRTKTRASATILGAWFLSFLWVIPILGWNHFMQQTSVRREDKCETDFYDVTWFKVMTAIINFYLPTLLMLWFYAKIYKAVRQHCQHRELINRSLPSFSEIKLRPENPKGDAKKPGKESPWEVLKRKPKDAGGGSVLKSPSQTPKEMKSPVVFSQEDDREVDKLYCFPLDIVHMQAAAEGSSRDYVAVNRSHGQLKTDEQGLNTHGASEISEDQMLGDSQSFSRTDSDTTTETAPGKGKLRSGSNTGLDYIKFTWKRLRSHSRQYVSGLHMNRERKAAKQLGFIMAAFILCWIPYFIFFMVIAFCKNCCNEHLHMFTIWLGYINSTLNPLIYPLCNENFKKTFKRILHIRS
Assay [6] concerns the target Alpha-2C adrenergic receptor (Homo sapiens, UniProt P18825). Description: Adrenoceptor reporter cell assay (ADRA2C). It counts as functional.
Assay [7] concerns the target Sodium-dependent noradrenaline transporter (Homo sapiens) (UniProt P23975). As to conditions: Compound concentration 10.0 uM.
Assay [8] has as its target Alpha-1B adrenergic receptor (Homo sapiens) (UniProt P35368). Conditions: Compound concentration 10.0 uM.
The target of assay [9] is 5-hydroxytryptamine receptor 3A (Homo sapiens) (UniProt P46098). Conditions: Compound concentration 10.0 uM.
Sequence of 5-hydroxytryptamine receptor 3A (Homo sapiens) (P46098 whole entry): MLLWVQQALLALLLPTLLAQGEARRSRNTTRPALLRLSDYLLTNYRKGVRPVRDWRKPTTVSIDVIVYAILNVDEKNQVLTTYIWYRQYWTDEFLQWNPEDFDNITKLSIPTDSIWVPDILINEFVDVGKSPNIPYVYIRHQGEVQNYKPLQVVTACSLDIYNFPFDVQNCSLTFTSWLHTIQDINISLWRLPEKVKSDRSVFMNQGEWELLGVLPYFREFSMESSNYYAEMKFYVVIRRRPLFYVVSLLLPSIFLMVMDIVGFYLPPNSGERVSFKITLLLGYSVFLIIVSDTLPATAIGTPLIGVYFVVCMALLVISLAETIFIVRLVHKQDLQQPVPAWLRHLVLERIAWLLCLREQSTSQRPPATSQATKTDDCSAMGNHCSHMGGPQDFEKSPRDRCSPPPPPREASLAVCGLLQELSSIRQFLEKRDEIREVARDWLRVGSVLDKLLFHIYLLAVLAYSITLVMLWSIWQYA
Assay [10] concerns the target T1, Muscarinic acetylcholine receptor M2 (Homo sapiens) (UniProt P08172).
T1 sequence (whole entry): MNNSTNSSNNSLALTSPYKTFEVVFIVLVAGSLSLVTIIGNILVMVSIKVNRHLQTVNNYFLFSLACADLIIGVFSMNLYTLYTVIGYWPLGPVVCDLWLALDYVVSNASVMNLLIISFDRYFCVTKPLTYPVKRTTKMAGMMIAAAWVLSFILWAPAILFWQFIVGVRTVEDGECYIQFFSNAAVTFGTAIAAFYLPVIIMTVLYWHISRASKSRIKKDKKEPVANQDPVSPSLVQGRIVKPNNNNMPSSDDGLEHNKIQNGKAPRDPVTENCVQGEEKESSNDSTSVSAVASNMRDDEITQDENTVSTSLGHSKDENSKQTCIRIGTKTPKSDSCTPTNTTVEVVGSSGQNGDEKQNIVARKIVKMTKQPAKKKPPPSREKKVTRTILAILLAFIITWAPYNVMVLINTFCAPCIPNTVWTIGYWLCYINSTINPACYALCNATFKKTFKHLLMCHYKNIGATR
Conditions: Compound concentration 10.0 uM.

Assay [11] has as its target Sigma intracellular receptor 2 (Homo sapiens) (UniProt Q5BJF2). As to conditions: Compound concentration 10.0 uM.
In assay [12] the target is Histamine H2 receptor (Homo sapiens) (UniProt P25021). Conditions: Compound concentration 10.0 uM.
Assay [13] concerns the target T2, 5-hydroxytryptamine receptor 1A (Homo sapiens) (UniProt P08908).
T2 sequence (whole entry): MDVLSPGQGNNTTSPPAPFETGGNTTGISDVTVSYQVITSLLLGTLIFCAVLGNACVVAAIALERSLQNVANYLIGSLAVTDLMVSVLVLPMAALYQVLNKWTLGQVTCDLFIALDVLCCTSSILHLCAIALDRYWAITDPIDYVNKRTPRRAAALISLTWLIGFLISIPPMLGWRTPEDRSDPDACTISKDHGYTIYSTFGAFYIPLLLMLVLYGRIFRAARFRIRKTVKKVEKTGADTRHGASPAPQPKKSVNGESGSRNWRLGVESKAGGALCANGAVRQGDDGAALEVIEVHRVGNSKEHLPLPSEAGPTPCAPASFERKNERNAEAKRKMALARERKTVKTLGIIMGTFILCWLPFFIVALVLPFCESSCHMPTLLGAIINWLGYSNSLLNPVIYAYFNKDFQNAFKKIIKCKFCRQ
Conditions: Compound concentration 10.0 uM.

The target in assay [14] is Alpha-2C adrenergic receptor (Homo sapiens) (UniProt P18825). As to conditions: Compound concentration 10.0 uM.
In assay [15] the target is Mu-type opioid receptor (Homo sapiens) (UniProt P35372). As to conditions: Compound concentration 10.0 uM.
In assay [16] the target is GABA-A receptor; anion channel (Rattus norvegicus) (UniProt O09028+P15431+P18506+P18508+P19969+P20236+P23574+P23576+P28471+P28473+P30191+P62813+P63079+P63138+Q91ZM7+Q9ES14). As to conditions: Compound concentration 10.0 uM.
Assay [17] has as its target Delta-type opioid receptor (Homo sapiens) (UniProt P41143). Conditions: Compound concentration 10.0 uM.
The target in assay [18] is D(2) dopamine receptor (Homo sapiens, UniProt P14416). Description: Bayer Inhouse […] panel (DRD2).
The target in assay [19] is Histamine H4 receptor (Homo sapiens) (UniProt Q9H3N8). Conditions: Compound concentration 10.0 uM.
For assay [20], the target named is D(1A) dopamine receptor (Homo sapiens) (UniProt P21728). Conditions: Compound concentration 10.0 uM.
Sequence of D(1A) dopamine receptor (Homo sapiens) (P21728 whole entry): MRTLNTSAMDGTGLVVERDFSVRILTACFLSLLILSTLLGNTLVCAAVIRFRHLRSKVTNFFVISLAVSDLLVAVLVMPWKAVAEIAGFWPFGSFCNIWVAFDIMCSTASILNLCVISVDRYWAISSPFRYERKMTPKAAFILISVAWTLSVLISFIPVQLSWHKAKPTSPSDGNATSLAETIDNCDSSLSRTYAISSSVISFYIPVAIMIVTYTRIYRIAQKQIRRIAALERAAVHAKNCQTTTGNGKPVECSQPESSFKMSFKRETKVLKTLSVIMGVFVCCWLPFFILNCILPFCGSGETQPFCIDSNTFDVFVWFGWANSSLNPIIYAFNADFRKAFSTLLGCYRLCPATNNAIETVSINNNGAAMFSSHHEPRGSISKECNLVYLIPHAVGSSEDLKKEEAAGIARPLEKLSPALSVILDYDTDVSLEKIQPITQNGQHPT
Assay [21] concerns the target T3, 5-hydroxytryptamine receptor 2C (Homo sapiens) (UniProt P28335).
T3 sequence (whole entry): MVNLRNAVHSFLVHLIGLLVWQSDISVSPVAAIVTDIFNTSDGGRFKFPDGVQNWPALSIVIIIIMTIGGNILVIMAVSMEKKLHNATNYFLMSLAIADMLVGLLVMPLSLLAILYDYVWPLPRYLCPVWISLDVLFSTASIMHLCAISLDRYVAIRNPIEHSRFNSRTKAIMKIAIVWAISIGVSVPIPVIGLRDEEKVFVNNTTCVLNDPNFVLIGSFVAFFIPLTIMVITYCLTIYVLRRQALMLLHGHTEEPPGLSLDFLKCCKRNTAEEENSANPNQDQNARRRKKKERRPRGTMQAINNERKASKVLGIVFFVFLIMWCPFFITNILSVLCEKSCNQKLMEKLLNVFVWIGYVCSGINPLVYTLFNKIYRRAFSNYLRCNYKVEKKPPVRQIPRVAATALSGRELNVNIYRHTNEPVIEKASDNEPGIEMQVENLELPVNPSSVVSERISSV
Conditions: Compound concentration 10.0 uM.

Assay [22] addresses Beta-1 adrenergic receptor (Homo sapiens, UniProt P08588). As to conditions: Compound concentration 10.0 uM.
The target in assay [23] is Muscarinic acetylcholine receptor M3 (Homo sapiens) (UniProt P20309). As to conditions: Compound concentration 10.0 uM.
Sequence of Muscarinic acetylcholine receptor M3 (Homo sapiens) (P20309 whole entry, looked up): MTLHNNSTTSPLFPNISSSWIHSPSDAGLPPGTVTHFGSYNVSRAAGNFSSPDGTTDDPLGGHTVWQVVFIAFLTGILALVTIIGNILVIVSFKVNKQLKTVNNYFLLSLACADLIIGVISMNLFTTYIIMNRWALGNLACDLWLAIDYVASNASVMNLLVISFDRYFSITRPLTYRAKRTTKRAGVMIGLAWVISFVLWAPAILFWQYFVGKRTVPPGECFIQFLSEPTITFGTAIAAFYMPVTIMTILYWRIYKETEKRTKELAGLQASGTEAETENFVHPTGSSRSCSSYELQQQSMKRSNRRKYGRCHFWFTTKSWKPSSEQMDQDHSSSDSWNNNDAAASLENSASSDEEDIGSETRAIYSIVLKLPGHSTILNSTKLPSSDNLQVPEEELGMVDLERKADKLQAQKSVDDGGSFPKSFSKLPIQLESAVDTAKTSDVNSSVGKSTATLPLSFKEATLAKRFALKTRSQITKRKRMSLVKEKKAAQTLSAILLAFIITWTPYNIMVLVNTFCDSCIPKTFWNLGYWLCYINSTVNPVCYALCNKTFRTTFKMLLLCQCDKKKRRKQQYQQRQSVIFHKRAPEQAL
The target in assay [24] is D(3) dopamine receptor (Homo sapiens) (UniProt P35462). Conditions: Compound concentration 10.0 uM.

Sequence of Alpha-1B adrenergic receptor (Homo sapiens) (P35368 whole entry): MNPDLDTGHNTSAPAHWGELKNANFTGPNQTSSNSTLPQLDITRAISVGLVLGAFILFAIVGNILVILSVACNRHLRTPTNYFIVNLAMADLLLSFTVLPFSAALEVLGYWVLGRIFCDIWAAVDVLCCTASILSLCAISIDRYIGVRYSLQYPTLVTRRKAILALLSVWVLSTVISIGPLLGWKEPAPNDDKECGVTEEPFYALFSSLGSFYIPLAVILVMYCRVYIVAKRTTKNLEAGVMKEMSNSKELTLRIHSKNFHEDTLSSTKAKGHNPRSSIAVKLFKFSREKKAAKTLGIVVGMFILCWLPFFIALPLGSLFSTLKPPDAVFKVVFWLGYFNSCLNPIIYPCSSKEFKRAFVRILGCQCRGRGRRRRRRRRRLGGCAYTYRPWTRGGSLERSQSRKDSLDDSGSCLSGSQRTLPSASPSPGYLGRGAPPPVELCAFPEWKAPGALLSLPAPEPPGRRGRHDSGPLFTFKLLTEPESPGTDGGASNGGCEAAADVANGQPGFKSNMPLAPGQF
Sequence of Beta-1 adrenergic receptor (P08588 whole entry, looked up): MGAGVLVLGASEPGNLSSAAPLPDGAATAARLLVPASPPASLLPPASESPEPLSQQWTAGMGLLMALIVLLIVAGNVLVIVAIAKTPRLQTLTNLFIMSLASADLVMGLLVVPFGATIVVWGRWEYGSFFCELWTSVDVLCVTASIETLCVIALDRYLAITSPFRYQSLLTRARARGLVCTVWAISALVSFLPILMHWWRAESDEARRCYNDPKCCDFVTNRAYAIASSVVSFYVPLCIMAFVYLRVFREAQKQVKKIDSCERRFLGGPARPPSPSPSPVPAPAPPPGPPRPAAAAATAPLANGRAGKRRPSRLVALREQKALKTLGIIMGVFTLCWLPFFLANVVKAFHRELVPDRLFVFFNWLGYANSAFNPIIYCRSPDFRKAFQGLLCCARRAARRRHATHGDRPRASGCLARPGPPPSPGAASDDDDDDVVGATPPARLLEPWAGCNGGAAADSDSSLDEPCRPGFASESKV
Sequence of Beta-3 adrenergic receptor (P13945 whole entry, looked up): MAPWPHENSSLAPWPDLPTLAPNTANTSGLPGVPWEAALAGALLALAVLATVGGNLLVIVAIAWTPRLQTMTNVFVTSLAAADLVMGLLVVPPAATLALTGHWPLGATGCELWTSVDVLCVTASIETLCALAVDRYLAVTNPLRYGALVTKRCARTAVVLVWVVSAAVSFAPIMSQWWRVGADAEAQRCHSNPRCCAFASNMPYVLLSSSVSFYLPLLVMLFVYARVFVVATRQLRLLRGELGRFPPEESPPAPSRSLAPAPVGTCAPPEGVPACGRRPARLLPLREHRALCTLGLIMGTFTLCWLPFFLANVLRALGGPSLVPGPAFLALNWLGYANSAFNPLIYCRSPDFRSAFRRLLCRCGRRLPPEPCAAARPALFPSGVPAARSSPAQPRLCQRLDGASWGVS
Sequence of Sigma non-opioid intracellular receptor 1 (Homo sapiens) (Q99720 whole entry): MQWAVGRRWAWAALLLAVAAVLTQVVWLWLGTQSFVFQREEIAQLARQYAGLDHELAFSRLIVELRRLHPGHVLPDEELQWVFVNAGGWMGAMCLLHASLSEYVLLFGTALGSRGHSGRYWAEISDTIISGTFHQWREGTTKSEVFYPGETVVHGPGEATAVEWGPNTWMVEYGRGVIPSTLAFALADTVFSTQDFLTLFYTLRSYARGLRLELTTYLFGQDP
Sequence of Sigma intracellular receptor 2 (Homo sapiens) (Q5BJF2 whole entry): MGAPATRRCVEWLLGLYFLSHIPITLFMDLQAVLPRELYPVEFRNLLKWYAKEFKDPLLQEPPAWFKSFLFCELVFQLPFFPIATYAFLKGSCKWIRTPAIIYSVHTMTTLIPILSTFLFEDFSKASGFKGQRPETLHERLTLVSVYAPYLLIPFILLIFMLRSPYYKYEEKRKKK
Sequence of Sodium-dependent noradrenaline transporter (Homo sapiens) (P23975 whole entry): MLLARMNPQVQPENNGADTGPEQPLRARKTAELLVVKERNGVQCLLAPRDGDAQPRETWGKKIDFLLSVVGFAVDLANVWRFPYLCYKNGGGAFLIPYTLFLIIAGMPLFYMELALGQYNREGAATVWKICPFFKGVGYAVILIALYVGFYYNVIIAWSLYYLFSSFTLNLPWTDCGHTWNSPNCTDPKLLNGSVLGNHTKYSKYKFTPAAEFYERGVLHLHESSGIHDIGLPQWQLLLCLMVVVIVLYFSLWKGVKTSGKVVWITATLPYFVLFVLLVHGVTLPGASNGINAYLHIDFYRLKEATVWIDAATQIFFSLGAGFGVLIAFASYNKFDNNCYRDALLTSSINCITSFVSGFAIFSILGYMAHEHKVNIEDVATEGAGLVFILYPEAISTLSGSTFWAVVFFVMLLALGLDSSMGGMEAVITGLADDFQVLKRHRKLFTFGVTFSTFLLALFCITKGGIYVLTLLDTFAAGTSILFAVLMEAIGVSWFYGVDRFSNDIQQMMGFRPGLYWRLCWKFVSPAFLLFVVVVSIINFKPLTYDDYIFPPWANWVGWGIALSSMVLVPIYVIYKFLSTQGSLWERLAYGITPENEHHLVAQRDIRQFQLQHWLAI

In general, inhibition refers to the relative decrease from the control value, in per cent. What is called IC50 is the concentration at which inhibition is half-maximal. Read a high IC50 as lower potency. For the compound `CNc1cc[n+](CCNC(=O)c2ccn3c(-c4c(C)noc4C)cnc3c2)cc1`, the inhibition is 1.07% in assay [1]; 5.99% in assay [2]; 31.1% in assay [3]; 35.5% in [4]; 1.15% in [5]; -2.68% in assay [7]. Further, the inhibition in [8] is 0.79%; in assay [9], 6.7%; in [10], 3.34%; in assay [11] it was 27.5%; in assay [12], 5.19%; in assay [13], 33.4%. The inhibition is 41.3% in assay [14]; 6.53% in assay [15]; 20.9% in [16]; 20.1% in [17]; 3.02% in assay [19]; -2.83% in [20]. The inhibition in assay [21] is -3.48%; in [22], 2.87%; in assay [23] it was 0.75%; in assay [24], 8.88%. The IC50 is > 11.8 µM (not active) in assay [6] and 1.4 µM (not active) in assay [18].

Regarding `Cc1noc(C)c1-c1cnc2cc(C(=O)NCCC[n+]3ccc(N(C)C)cc3)ccn12`, the inhibition in assay [1] was -3.02%; in [2], 3.4%; in assay [3] it was 9.17%; in assay [4], 25.1%; in assay [5], 2.11%; in [7] it was 1.75%. In addition, the inhibition is 1.7% in assay [8]; 4.99% in [9]; 7.75% in assay [10]; 14.1% in [11]; 9.52% in assay [12]; 81.7% in assay [13]. Also, the inhibition in assay [14] was 18.3%; in assay [15], 18.9%; in [16] it was -7.67%; in [17], -5.36%; in assay [19], 15.9%; in assay [20] it was -2.67%. The inhibition is -5.48% in assay [21], 3.84% in assay [22], 18% in [23] and -6.53% in assay [24]. The IC50 in assay [6] is listed as > 10 µM (not active); in assay [18], > 20 µM (not active).
